From patent US20260325473A1, “N-Beta-Hydroxybutyryl-Amino Acids and Related Compositions and Methods” (The Board of Trustees of the Leland Stanford Junior …, priority 2023, published 2026)

Columns and labels:
CNDP2 [1] = target: T1, CNDP2 (Mus musculus, UniProt Q9D1A2); test: In situ live cell enzyme activity assay, CNDP2- or GFP-transfected HEK293T cells; assay type: cell-based; set-up: expressed in transfected cells; host or cells: HEK293T (lysate); conditions: role: product; BHB-treated; conditioned media
T1 sequence (Q9D1A2 1-475): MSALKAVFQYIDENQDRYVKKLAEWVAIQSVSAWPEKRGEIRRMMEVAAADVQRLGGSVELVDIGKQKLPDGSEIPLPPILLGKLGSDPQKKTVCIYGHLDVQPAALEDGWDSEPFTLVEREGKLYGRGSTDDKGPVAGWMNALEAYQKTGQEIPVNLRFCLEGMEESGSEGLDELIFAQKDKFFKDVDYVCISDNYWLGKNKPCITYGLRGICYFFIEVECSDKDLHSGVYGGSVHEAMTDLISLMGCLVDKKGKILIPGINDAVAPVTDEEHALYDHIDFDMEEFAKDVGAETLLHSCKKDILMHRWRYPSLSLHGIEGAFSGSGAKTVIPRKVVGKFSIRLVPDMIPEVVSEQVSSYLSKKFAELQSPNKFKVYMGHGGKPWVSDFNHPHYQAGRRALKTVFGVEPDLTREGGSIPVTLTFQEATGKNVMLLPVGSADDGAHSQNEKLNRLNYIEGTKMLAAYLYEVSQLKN
Protocol: Cellular enzyme activity assays. Cells were plated in 12-well plates at 70-80% confluence. The next day, cells were washed two times with PBS and incubated in 0.5 ml serum-free medium. After overnight incubation, 400 μl of medium was removed and 20 μl of 1 M HCl were added to acidify the medium and to protonate keto amino acids. Ethyl acetate (400 μl) was added into each sample and reactions were vortexed for 30 s to extract keto amino acids into the organic layer. Reactions were centrifuged at 4° C. for 10 min at 15,000 r.p.m. and total of 300 μl from the top layer was transferred to a new Eppendorf tube and dried down under a stream of nitrogen. The residue was re-suspended in 150 μl of an 2:1:1 mixture of acetonitrile: methanol: water. The mixture was centrifuged at 4° C. for 10 min at 15,000 r.p.m. and the supernatant was transferred to a LC-MS vial. Cells were kept on ice to collect the lysate. PBS (150 μl) was added into each well and the cells scraped into an Eppendorf tube. This step was repeated again to ensure all cells were collected. Cells were then centrifuged at 4° C. for 10 min at 2,000g and the supernatant removed to obtain the cell pellet. A volume of 150 μl of a 2:1:1 mixture of acetonitrile: methanol:water mixture was used to lyse the cells and precipitate large proteins. […]

CNDP2 [2] = target: T1, CNDP2; test: Tissue enzyme activity, WT or CNDP2-KO mouse tissue lysates; assay type: biochemical; conditions: role: product; for synthesis activity in WT kidney and gut: 1 h, 37° C
Protocol: Tissue enzyme activity assays. Mouse tissues were mixed with cold PBS and homogenized using a Benchmark BeadBlaster Homogenizer at 4 °C. Protein concentrations were adjusted and the resulting crude was filtered through a 0.45-μm filter to remove insoluble materials. The in vitro reactions were conducted in Eppendorf tubes with 200 μg protein and incubation with the corresponding substrates at 37° C. for 1 hour. After that time, 10 μl of HCl and 400 μl of ethyl acetate were added in the BHB and lactate reactions and the samples were vortexed for 30 s. Reactions were centrifuged at 4° C. for 10 min at 15,000 r.p.m. and total of 300 μl from the top layer was transferred to a new Eppendorf tube and dried down under a stream of nitrogen. The residue was re-suspended in 100 μl of an 2:1:1 mixture of acetonitrile: methanol: water. The mixture was centrifuged at 4° C. for 10 min at 15,000 r.p.m. and the supernatant was transferred to a LC-MS vial. For carnosine reactions, the reactions were not acidified and were directly quenched with 300 μl of an 2:1:1 mixture of acetonitrile: methanol: water after the 1 h incubation and vortexed for 30 s. The mixture was centrifuged at 4° C. for 10 min at 15,000 r.p.m. and the supernatant was transferred to a LC-MS vial.

CNDP2 [3] = target: T1, CNDP2; test: In vitro synthase (condensation) activity, lysates of CNDP2-transfected HEK293T cells; assay type: biochemical; set-up: expressed in transfected cells; host or cells: HEK293T (lysate); conditions: role: product
Protocol: In vitro enzyme activity assays. HEK293T cells were transfected with GFP, CNDP2 or CNDP2-E166A using PolyFect (Qiagen 301105) according to the manufacturer's instructions. The medium was changed one day post-transfection. After an additional 24 h, the cells were harvested in PBS, lysed by sonication and centrifuged (10 min at 15,000 rpm) to remove debris. Supernatant was collected and protein concentrations were adjusted. The in vitro reactions were conducted in Eppendorf tubes with 100 μL of 1 mg/mL protein and 20 mM substrates for keto amino acid synthase activity assays and. Reactions were incubated for 1 h at 37° C. and 20 μl of 1 M HCl were added to acidify the medium and to protonate keto amino acids. Reactions were vortexed and 400 μL of ethyl acetate were added to each reaction. Reactions were vortexed for 30 s to extract keto amino acids into the organic layer and centrifuged at 4° C. for 10 min at 15,000 r.p.m. A total of 300 μl from the top layer was transferred to a new Eppendorf tube and dried down under a stream of nitrogen. The residue was re-suspended in 150 μl of an 2:1:1 mixture of acetonitrile: methanol: water. The mixture was centrifuged at 4° C. for 10 min at 15,000 r.p.m. and the supernatant was transferred to a LC-MS vial.

Compound	keto amino acid production in CNDP2-transfected live cells (CNDP2 [1])	synthesis activity in WT brain, liver, and quadriceps (CNDP2 [2]; BHB 20 mM + Phe 20 mM)	reduction of synthesis activity in CNDP2-KO vs WT, brain (CNDP2 [2]; BHB 20 mM + Phe 20 mM, brain)	reduction of synthesis activity in CNDP2-KO vs WT, gut (CNDP2 [2]; BHB 20 mM + Phe 20 mM, gut)	reduction of synthesis activity in CNDP2-KO vs WT, kidney (CNDP2 [2]; BHB 20 mM + Phe 20 mM, kidney)	reduction of synthesis activity in CNDP2-KO vs WT, liver (CNDP2 [2]; BHB 20 mM + Phe 20 mM, liver)	reduction of synthesis activity in CNDP2-KO vs WT, quadriceps (CNDP2 [2]; BHB 20 mM + Phe 20 mM, quadriceps)	synthesis activity in WT kidney and gut (CNDP2 [2]; BHB 20 mM + amino acid 20 mM)	product formed with BHB and phenylalanine as only substrates (CNDP2 [3]; BHB alone with 20 mM phenylalanine)	products formed from combined lactate and BHB (CNDP2 [3]; lactate and BHB at varying concentrations, phenylalanine 20 mM)	BHB-amino acid synthesis activity in CNDP2-KO kidney and gut (CNDP2 [2]; BHB 20 mM + amino acid 20 mM)
CC(O)CC(=O)N[C@@H](Cc1ccccc1)C(=O)O (stereo partly shown) [BHB-Phe, N-betahydroxybutyryl-phenylalanine]	robust production	lower, but detectable	> 85%	> 95%	> 95%	> 75%	> 60%	highest BHB-Phe synthesis activity	exclusive product formed	simultaneous production	
CC(O)CC(=O)N[C@H](C(=O)O)C(C)C (stereo partly shown) [BHB-Val, N-betahydroxybutyryl-valine]	robust production							highest BHB-amino acid synthesis activity			largely abolished
